In general, inhibition refers to the share of the control response that was lost under treatment. Low values mean a response near the control, high ones a response far below the control.

The test system of series [1] is CYP3A4. The experiment in a line: Inhibition of CYP-mediated metabolism of 125I-ODV by selective inhibitor (ketoconazole). As to conditions: ddY, mouse, pooled mouse liver homogenate (MLH), pH 7.4, probe 125I-ODV; inhibitor 10 µM, compared with NADPH [+]. The class given is in vitro ADME. The method, then:
(§1) The pooled MLH was stored at −80 °C.
(§2) For inhibition analysis of specific isozymes of CYP-mediated metabolism of ^125I-ODV, selective inhibitors of CYP isozymes employed in this study included α-naphthoflavone (an inhibitor of CYP1A1 and 1A2), sulfaphenazole (CYP2C9), fluconazole (CYP2C19), paroxetine (CYP2D6), 4-methylpyrazole (CYP2E1), and ketoconazole (CYP3A4). These selective inhibitors were used to elucidate the CYP responsible for the biotransformation of ^125I-ODV. Each inhibitor was dissolved at 10 µM (dimethyl sulfoxide 0.8% v/v final concentration). […] The sample was incubated at 37 °C for 15 min with gentle shaking. The reaction was stopped by adding 100 µL ethanol, and the sample was centrifuged for 5 min at 18,000 g.

A further series deals with CYP2D6. The experiment in a line: Inhibition of CYP-mediated metabolism of 125I-ODV by selective inhibitor (paroxetine). The class given is in vitro ADME. As to conditions: ddY, mouse, pooled mouse liver homogenate (MLH), pH 7.4, probe 125I-ODV; inhibitor 10 µM, compared with NADPH [+]. The method, then: as §1, §2
Series [2] relates to CYP3A4. The arrangement: method as in PMID 26331791. As to conditions: non-labeled ODV ref 11; cited from earlier work.

`CC(=O)N1CCN(c2ccc(OCC3COC(Cn4ccnc4)(c4ccc(Cl)cc4Cl)O3)cc2)CC1` (stereo not drawn) [ketoconazole]: the inhibition at 15 min, 10 µM in the series with CYP3A4 [1] amounted to 63%.

`Fc1ccc([C@@H]2CCNC[C@H]2COc2ccc3c(c2)OCO3)cc1` [paroxetine]: the inhibition at 15 min, 10 µM in the series with CYP2D6 worked out at 79%.

For the compound `CN(C)CC(c1ccc(O)cc1)C1(O)CCCCC1` (stereo not drawn) [ODV, O-desmethylvenlafaxine], the “CYP isozyme metabolizing ODV” value in the series with CYP3A4 [2] is on record as “metabolized only by CYP3A4”.

Source of the values: article PMC9569593, “Measurement of Hepatic CYP3A4 and 2D6 Activity Using Radioiodine-Labeled O-Desmethylvenlafaxine” (International Journal of Molecular Sciences, 2022).
